Assay results as given in patent publication US12358907B2, “Substituted pyrrolidine amides III” (GRÜNENTHAL GMBH, priority 2019, dated 2025).

The molecules below were run against glucocorticoid receptor (GAL4 DBD-GR) (Homo sapiens (Human), UniProt P04150) (assay: GR cell-based assays (GRE agonist / GRE antagonist), CHO-Gal4/GR luciferase reporter). Conditions: CHO-Gal4/GR reporter cells, agonist mode (EC50) or antagonist mode against beclometasone (IC50), 6 hour incubation.
Summary of the method: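 CHO cells stably carrying GAL4 DBD-GR ligand-binding-domain fusion and a GAL4-UAS firefly luciferase reporter were treated in Opti-MEM with 8 half-log concentrations from 10 μM to 0.003 μM (0.5% DMSO, quadruplicates). Antagonist mode measured repression of beclomethasone-induced signal. Luminescence after lysis gave EC50 or IC50.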

Chain of glucocorticoid receptor (GAL4 DBD-GR) (P04150 524-758): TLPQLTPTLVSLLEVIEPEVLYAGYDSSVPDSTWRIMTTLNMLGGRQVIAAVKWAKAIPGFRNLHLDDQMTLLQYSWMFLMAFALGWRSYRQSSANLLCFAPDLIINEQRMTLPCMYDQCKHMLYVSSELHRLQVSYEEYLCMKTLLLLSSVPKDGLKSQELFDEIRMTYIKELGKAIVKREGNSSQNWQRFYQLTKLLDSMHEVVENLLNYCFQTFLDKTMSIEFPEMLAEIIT

SMILES | IC50 [nM]
O=C(N[C@@H]1[C@@H](c2ccccc2)N(c2ccc3c(cnn3-c3ccc(F)cc3)c2)C(=O)C12CCC2)C1CC1 [Example 135, N-((7R,8S)-6-(1-(4-fluorophenyl)-1H-indazol-5-yl)-5-oxo-7-phenyl-6-azaspiro[3.4]octan-8-yl)cyclopropanecarboxamid] | < 100
Cn1ccc(C(=O)N[C@@H]2[C@@H](c3ccccc3)N(c3ccc4c(cnn4-c4ccc(F)cc4)c3)C(=O)C2(C)C)n1 [Example 37, N-((2R,3S)-1-(1-(4-fluorophenyl)-1H-indazol-5-yl)-4,4-dimethyl-5-oxo-2-phenylpyrrolidin-3-yl)-1-methyl-1H-pyrazole-3-carboxamide] | < 100

Further lines, results first:

IC50 [nM] | SMILES
< 100 | Cc1ncsc1C(=O)N[C@@H]1[C@@H](c2ccccc2)N(c2ccc3c(cnn3-c3ccc(F)cc3)c2)C(=O)C1(C)C [Example 38b, N-((2R,3S)-1-(1-(4-fluorophenyl)-1H-indazol-5-yl)-4,4-dimethyl-5-oxo-2-phenylpyrrolidin-3-yl)-4-methylthiazole-5-carboxamide]
< 100 | Cc1ncc(C(=O)N[C@@H]2[C@@H](c3ccccc3)N(c3ccc4c(cnn4-c4ccc(F)cc4)c3)C(=O)C2(C)C)o1 [Example 44a, N-((2R,3S)-1-(1-(4-fluorophenyl)-1H-indazol-5-yl)-4,4-dimethyl-5-oxo-2-phenylpyrrolidin-3-yl)-2-methyloxazole-5-carboxamide]

Same assay, conditions: read-out: IC50 or EC50

SMILES | IC50 [nM]
CC[C@@H]1[C@@H](NS(C)(=O)=O)[C@H](Cc2ccccc2)C(=O)N1c1ccc2c(cnn2-c2ccc(F)cc2)c1 (racemic) [Example 91, N-[rac-(2R,3S,4S)-4-Benzyl-2-ethyl-1-[1-(4-fluorophenyl)-1H-indazol-5-yl]-5-oxo-pyrrolidin-3-yl]-methanesulfonic acid amide] | 1000 to 15000
C[C@@H]1C(=O)N(c2ccc3c(cnn3-c3ccc(F)cc3)c2)[C@H](c2ccccc2Cl)[C@H]1NC(=O)c1cccnc1 (racemic) [Example 92, N-[rac-(2R,3S,4S)-2-(2-Chlorophenyl)-1-[1-(4-fluorophenyl)-1H-indazol-5-yl]-4-methyl-5-oxo-pyrrolidin-3-yl]-pyridine-3-carboxylic acid amide] | < 100
C[C@@]1(CC(F)F)C(=O)N(c2ccc3c(cnn3-c3ccc(F)cc3)c2)[C@H](c2ccccc2)[C@H]1NC(=O)C1CC1 (racemic) [Example 148, N-(rac-(2R,3S,4S)-4-(2,2-difluoroethyl)-1-(1-(4-fluorophenyl)-1H-indazol-5-yl)-4-methyl-5-oxo-2-phenylpyrrolidin-3-yl)cyclopropanecarboxamide] | < 100
Cc1cccc([C@@H]2[C@@H](NS(C)(=O)=O)[C@@H](C)C(=O)N2c2ccc3c(cnn3-c3ccc(F)cc3)c2)c1 (racemic) [Example 76, N-[rac-(2R,3S,4R)-1-[1-(4-Fluorophenyl)-1H-indazol-5-yl]-4-methyl-2-m-tolyl-5-oxo-pyrrolidin-3-yl]-methanesulfonic acid amide] | < 100
C[C@@H]1C(=O)N(c2ccc3c(cnn3-c3ccc(F)cc3)c2)[C@H](c2ccccc2)[C@H]1NC(=O)c1ncccn1 (racemic) [Example 66, N-[rac-(2R,3S,4S)-1-[1-(4-Fluorophenyl)-1H-indazol-5-yl]-4-methyl-5-oxo-2-phenyl-pyrrolidin-3-yl]-pyrimidine-2-carboxylic acid amide] | < 100
O=C(N[C@@H]1[C@@H](c2ccccc2)N(c2cnc3c(cnn3-c3ccc(F)cc3)c2)C(=O)C12CC2)C1CC1 (racemic) [Example 31, N-[rac-((6R,7S)-5-(1-(4-fluorophenyl)-1H-pyrazolo[3,4-b]pyridin-5-yl)-4-oxo-6-phenyl-5-azaspiro[2.4]heptan-7-yl)]cyclopropanecarboxamide] | 100 to 1000
O=C(N[C@H]1[C@H](CC(F)F)C(=O)N(c2ccc3c(cnn3-c3ccc(F)cc3)c2)[C@@H]1c1ccccc1)C1CC1 [Example 131, N-((2R,3S,4S)-4-(2,2-difluoroethyl)-1-(1-(4-fluorophenyl)-1H-indazol-5-yl)-5-oxo-2-phenylpyrrolidin-3-yl)cyclopropanecarboxamide] | 100 to 1000
Cc1cccc([C@@H]2[C@@H](NC(=O)c3cccnc3)[C@H](C)C(=O)N2c2ccc3c(cnn3-c3ccc(F)cc3)c2)c1 (racemic) [Example 68, N-[rac-(2R,3S,4S)-1-[1-(4-Fluorophenyl)-1H-indazol-5-yl]-4-methyl-2-m-tolyl-5-oxo-pyrrolidin-3-yl]-pyridine-3-carboxylic acid amide] | 100 to 1000
COc1ccc([C@@H]2[C@@H](NC(=O)c3cccnc3)[C@H](C)C(=O)N2c2ccc3c(cnn3-c3ccc(F)cc3)c2)cc1 (racemic) [Example 84, N-[rac-(2R,3S,4S)-1-[1-(4-Fluorophenyl)-1H-indazol-5-yl]-2-(4-methoxyphenyl)-4-methyl-5-oxo-pyrrolidin-3-yl]-pyridine-3-carboxylic acid amide] | 100 to 1000
CC1C(=O)N(c2ccc3c(cnn3-c3ccc(F)cc3)c2)C(c2ccccc2Cl)C1NC(=O)c1ccn(C)n1 (racemic) [Example 94, N-[rac-(2R,3S,4R)-2-(2-Chlorophenyl)-1-[1-(4-fluorophenyl)-1H-indazol-5-yl]-4-methyl-5-oxo-pyrrolidin-3-yl]-1-methyl-1H-pyrazole-3-carboxylic acid amide] | < 100
CC1(C)C(=O)N(c2ccc3c(cnn3-c3ccc(F)cc3)c2)[C@H](c2ccccc2)[C@H]1NS(C)(=O)=O [Example 34a, N-((2R,3S)-1-(1-(4-fluorophenyl)-1H-indazol-5-yl)-4,4-dimethyl-5-oxo-2-phenylpyrrolidin-3-yl)methanesulfonamide] | < 100
C[C@@H]1C(=O)N(c2ccc3c(cnn3-c3ccc(F)cc3)c2)[C@H](c2ccccc2)[C@H]1NC(=O)c1cccnc1 (racemic) [Example 65, N-[rac-(2R,3S,4S)-1-[1-(4-Fluorophenyl)-1H-indazol-5-yl]-4-methyl-5-oxo-2-phenyl-pyrrolidin-3-yl]-pyridine-3-carboxylic acid amide] | < 100
Cc1cccc([C@@H]2[C@@H](NC(=O)C3CC3)[C@H](C)C(=O)N2c2ccc3c(cnn3-c3ccc(F)cc3)c2)c1 (racemic) [Example 63, N-[rac-(2R,3S,4S)-1-[1-(4-Fluorophenyl)-1H-indazol-5-yl]-4-methyl-2-m-tolyl-5-oxo-pyrrolidin-3-yl]-cyclopropanecarboxylic acid amide] | 100 to 1000
C[C@@]1(c2ccc(Cl)s2)[C@@H](NC(=O)C2CC2)CC(=O)N1c1ccc2c(cnn2-c2ccc(F)cc2)c1 [Example 151, N-((2S,3S)-2-(5-chlorothiophen-2-yl)-1-(1-(4-fluorophenyl)-1H-indazol-5-yl)-2-methyl-5-oxopyrrolidin-3-yl)cyclopropanecarboxamide] | 100 to 1000
COc1ccc([C@@H]2[C@@H](NC(=O)C(C)(F)F)[C@H](C)C(=O)N2c2ccc3c(cnn3-c3ccc(F)cc3)c2)cc1 (racemic) [Example 98, 2,2-Difluoro-N-[rac-(2R,3S,4S)-1-[1-(4-fluorophenyl)-1H-indazol-5-yl]-2-(4-methoxyphenyl)-4-methyl-5-oxo-pyrrolidin-3-yl]-propionamide] | < 100
C[C@@]1(c2ccccc2)[C@@H](NC(=O)C2CC2)CC(=O)N1c1ccc2c(cnn2-c2ccc(F)cc2)c1 (racemic) [Example 101, N-[rac-(2R,3S)-1-[1-(4-Fluorophenyl)-1H-indazol-5-yl]-2-methyl-5-oxo-2-phenyl-pyrrolidin-3-yl]-cyclopropanecarboxylic acid amide] | 100 to 1000
CC[C@@H]1[C@@H](NC(=O)C2CC2)[C@@](F)(Cc2ccccc2)C(=O)N1c1ccc2c(cnn2-c2ccc(F)cc2)c1 (racemic) [Example 137, N-(rac-(2R,3R,4S)-4-benzyl-2-ethyl-4-fluoro-1-(1-(4-fluorophenyl)-1H-indazol-5-yl)-5-oxopyrrolidin-3-yl)cyclopropanecarboxamide] | < 100
CC[C@@H]1[C@@H](NC(=O)c2ncccn2)[C@H](Cc2ccccc2)C(=O)N1c1ccc2c(cnn2-c2ccc(F)cc2)c1 (racemic) [Example 90, N-[rac-(2R,3S,4S)-4-Benzyl-2-ethyl-1-[1-(4-fluorophenyl)-1H-indazol-5-yl]-5-oxo-pyrrolidin-3-yl]-pyrimidine-2-carboxylic acid amide] | 1000 to 15000

Second part, the molecule after the results:

IC50 [nM] | SMILES
100 to 1000 | Cc1ncsc1C(=O)N[C@H]1[C@H](c2ccccc2)N(c2ccc3c(cnn3-c3ccc(F)cc3)c2)C(=O)C1(C)C [Example 38a, N-((2S,3R)-1-(1-(4-fluorophenyl)-1H-indazol-5-yl)-4,4-dimethyl-5-oxo-2-phenylpyrrolidin-3-yl)-4-methylthiazole-5-carboxamide]
100 to 1000 | Cc1ncoc1C(=O)N[C@H]1[C@H](c2ccccc2)N(c2ccc3c(cnn3-c3ccc(F)cc3)c2)C(=O)C1(C)C [Example 45b, N-((2S,3R)-1-(1-(4-fluorophenyl)-1H-indazol-5-yl)-4,4-dimethyl-5-oxo-2-phenylpyrrolidin-3-yl)-4-methyloxazole-5-carboxamide]
100 to 1000 | CC1(C)C(=O)N(c2ccc3c(cnn3-c3ccc(F)cc3)c2)[C@H](c2ccccc2)[C@H]1NC(=O)c1cnco1 [Example 36a, N-((2R,3S)-1-(1-(4-fluorophenyl)-1H-indazol-5-yl)-4,4-dimethyl-5-oxo-2-phenylpyrrolidin-3-yl)oxazole-5-carboxamide]
1000 to 15000 | CC1(C)C(=O)N(c2ccc3c(cnn3-c3ccc(F)cc3)c2)[C@@H](c2ccccc2)[C@@H]1NC(=O)c1ncccn1 [Example 43b, N-((2S,3R)-1-(1-(4-fluorophenyl)-1H-indazol-5-yl)-4,4-dimethyl-5-oxo-2-phenylpyrrolidin-3-yl)pyrimidine-2-carboxamide]
100 to 1000 | Cc1ncc(C(=O)N[C@H]2[C@H](c3ccccc3)N(c3ccc4c(cnn4-c4ccc(F)cc4)c3)C(=O)C2(C)C)o1 [Example 44b, N-((2S,3R)-1-(1-(4-fluorophenyl)-1H-indazol-5-yl)-4,4-dimethyl-5-oxo-2-phenylpyrrolidin-3-yl)-2-methyloxazole-5-carboxamide]
